Data taken from patent publication US20240254531A1, “Enhancing Coupled Catalytic Activity of Multi-Enzyme Cascades With Liquid-Liquid Phase Separation Using Peptide-Based Condensates” (The Government of the United States of America, as …, priority 2023, published 2024).

Tests used:
other enzymes = assay: enhancement of activity of other enzymes by peptide; assay type: biochemical; conditions: as detailed in the Appendix of Provisional Patent Application No. 63/482,369
[1] = test system: three enzyme cascade (AspB, LysC, Asd); assay: three-enzyme cascade reaction, rate of NADP+ formation with added peptide; assay type: biochemical, Bacillus subtilis (AspB); E. coli (LysC; conditions: addition of peptide vs no BP, FIG. 6A
Description: A three-enzyme cascade was used for these examples. The first enzyme in the cascade is Bacillus subtilis aspartate ammonia lyase (AspB), which catalyzes the conversion of fumaric acid to aspartic acid. The AspB gene utilized here encodes a 54.5 kDa monomer which assembles into a final active tetramer. The second enzyme is E. coli aspartokinase III (LysC) which phosphorylates aspartic acid in the second step using adenosine triphosphate (ATP) as the phosphate donor. The LysC gene encodes a 49.9 kDa monomer, which assembles into an active ˜100 kDa homodimer. The third enzyme in the cascade, E. coli aspartate-ß-semialdehyde dehydrogenase (Asd), catalyzes conversion of aspartyl phosphate to aspartate semialdehyde using nicotinamide adenine dinucleotide phosphate (NADPH) as the reducing co-factor. The Asd gene encodes a 41.4 kDa monomer which assembles into the active homodimer.
FIG. 2 provides data for free enzymes (not bound to QD) in the presence of different blocking peptides described in Table 1. […]
(§1) Also assayed were two peptides comprising primarily histidine, termed His9 and His12, with their sequences provided below in Table 3. […] FIG. 6C is a fluorescence microscopy image of the same subject of FIG. 6B showing that Alexa594 labeled enzymes are colocalized to the coacervate interior.

[2] = brightfield microscopy of peptide coacervate formation; assay type: physicochemical; conditions: brightfield microscopy image, FIG. 6B
Description: FIGS. 6A-6C show data for enhancement with His9 and His12 peptides and fluorescence micrograph images denoting coacervate formation and localization of enzymes within the coacervates. In FIG. 6A one can see the normalized initial rate of NADP+ formation of the three enzyme cascade with no BP or with addition of the His9 and His12 peptides. The flux through the cascade is increased with the addition of the BP. […] FIG. 6C is a fluorescence microscopy image of the same field as FIG. 6B showing that Alexa594 labeled enzymes are colocalized to the coacervate interior. Excitation was with a 562 nm laser and detection at 570-620 nm.
as §1, with “3. FIGS. 6A to 6C show data relating to these peptides. […] The flux through the cascade is increased with the addition of the BP.” for “3.”

Substance	activity of other enzymes (other enzymes)	flux through the cascade (normalized initial rate of NADP+ formation) [1]	coacervate formation [2]
[NH2]GSWHHHHHH[Amide] (H-GSWHHHHHH-NH2) [His-amine]	enhance activity	–	–
[NH2]WHHHHHHHHHHHH[COOH] (H-WHHHHHHHHHHHH-OH) [His12]	–	increased	–
[NH2]WHHHHHHHHH[COOH] (H-WHHHHHHHHH-OH) [His9]	–	increased	form coacervates
